Measured values as given in patent publication US10577362B2, “Substituted 2, 4-diamino-quinoline derivatives for use in the treatment of proliferative diseases” (GENOSCIENCE PHARMA, priority 2016, dated 2020).

Assays:
Format in all cases: cell-based, human
[1] = tested on: 786-O (renal adenocarcinoma) cell line; experiment: CellTiter-Glo luminescent cell viability assay, 786-O; settings: Homo sapiens, 786-0; for EC50: 786-O cell line, 72 h incubation, CellTiter-Glo, read-out: EC50, growth inhibition of 786-O; for viability at 4 µM / viability at 10 µM: 786-O, 72 h; for viability at 4 µM: compound at 4 μM; for viability at 10 µM: compound at 10 μM
Description: (§1) All cell lines were maintained in medium containing 1% penicillin-streptomycin (Dutscher, P06-07100) and 10% Fetal Bovine Serum (Hyclone Dutscher, RZK35922) cultured at 37° C. with 5% CO2. HepG2 (hepatocellular carcinoma), cell line was cultured in Dulbecco's modified Eagle's medium low glucose (Gibco, 21885025), Huh7 (hepatocellular carcinoma), HCT-116 (colorectal carcinoma), PANC-1 (prancreatic carcinoma) and A375 (malignant melanoma) cell lines were cultured in Dulbecco's modified Eagle's medium (Dutscher, L0103). MOLM-14 (acute myeloid leukemia) cell line was maintained in MEM alpha medium (Gibco, 22561-021). 786-0 (renal adenocarcinoma) cell lines were maintained in RPMI 1640 medium (Dutscher, L0498).
(§2) Cell viability was measured using the CellTiter-Glo® luminescent cell viability assay as described by the manufacturer (Promega, Ref G7571) using an Infinite F200Pro luminometer (Tecan). Briefly, for adherent cells, cells were plated onto 96-well plates (white with clear bottom) in 90 μL of media per well and were allowed to grow overnight before the assay. For cells growing in suspension, cells were plated onto 96-well plates 1 h before the assay.
(§3) Compounds were resuspended in H2O or DMSO and added at different concentrations to each well, and cell cultures were incubated for 72 h. Each diluent (H2O or DMSO) were used as a control, and all compounds were tested in a constant percentage of H2O or DMSO. On the day of the reading, plates are equilibrated 30 min at room temperature before the addition of 100 μL of CellTiter-Glo® and luminescence was measured using an Infinite F200Pro (Tecan). % cell viability were expressed as a percentage of the signal obtained for cell cultures treated with diluent. EC50 values were determined as the dose of compound required to reduce luminescent values to 50% of the signal obtained for cell cultures treated with diluent. The experimental data were analyzed using a computer program, Graphpad Prism v5 (GraphPad Software, Inc. La Jolla, Calif.). All points were at least done in duplicate.

[2] = tested on: Huh7 (hepatocellular carcinoma) cell line; experiment: CellTiter-Glo luminescent cell viability assay, Huh7; settings: Homo sapiens, Huh-7; for EC50: Huh7 cell line, 72 h incubation, CellTiter-Glo, read-out: EC50, growth inhibition of Huh7; for viability at 4 µM: Huh7, compound at 4 μM; for viability at 4 µM / viability at 10 µM: 72 h; for viability at 10 µM: Huh7, compound at 10 μM
Description: as §1, §2, §3

[3] = tested on: MOLM-14 (acute myeloid leukemia) cell line; experiment: CellTiter-Glo luminescent cell viability assay, MOLM-14; settings: Homo sapiens; for EC50: MOLM-14 cell line, 72 h incubation, CellTiter-Glo, read-out: EC50, growth inhibition of MOLM-14; for viability at 4 µM: MOLM-14, compound at 4 μM; for viability at 4 µM / viability at 10 µM: 72 h; for viability at 10 µM: MOLM-14, compound at 10 μM
Description: as §1, §2, §3

[4] = tested on: HCT-116 (colorectal carcinoma) cell line; experiment: CellTiter-Glo luminescent cell viability assay, HCT-116; settings: Homo sapiens; for EC50: HCT-116 cell line, 72 h incubation, CellTiter-Glo, read-out: EC50, growth inhibition of HCT-116; for viability at 4 µM: HCT-116, compound at 4 μM; for viability at 4 µM / viability at 10 µM: 72 h; for viability at 10 µM: HCT-116, compound at 10 μM
Description: as §1, §2, §3

[5] = tested on: A375 (malignant melanoma) cell line; experiment: CellTiter-Glo luminescent cell viability assay, A375; settings: Homo sapiens, A-375; for EC50: A375 cell line, 72 h incubation, CellTiter-Glo, read-out: EC50, growth inhibition of A375; for viability at 4 µM: A375, compound at 4 μM; for viability at 4 µM / viability at 10 µM: 72 h; for viability at 10 µM: A375, compound at 10 μM
Description: as §1, §2, §3

[6] = tested on: HepG2 (hepatocellular carcinoma) cell line; experiment: CellTiter-Glo luminescent cell viability assay, HepG2; settings: Homo sapiens; for EC50: HepG2 cell line, 72 h incubation, CellTiter-Glo, read-out: EC50, growth inhibition of HepG2; for viability at 4 µM / viability at 10 µM: HepG2, HepG, 72 h; for viability at 4 µM: compound at 4 μM; for viability at 10 µM: compound at 10 μM
Description: as §1, §2, §3

SMILES	EC50 [1]	EC50 [2]	EC50 [3]	EC50 [4]	EC50 [5]	EC50 [6]	viability at 4 µM [1]	viability at 10 µM [1]	viability at 4 µM [2]	viability at 10 µM [2]	viability at 4 µM [3]	viability at 10 µM [3]	viability at 4 µM [4]	viability at 10 µM [4]	viability at 4 µM [5]	viability at 10 µM [5]	viability at 4 µM [6]	viability at 10 µM [6]
Cc1cc(C)nc(Nc2ccc(Nc3nc4ccccc4c(N4CCC(NC(C)(C)C)CC4)c3C#N)cc2C)n1 [Compound 502CN, 2-[4-(4,6-dimethyl-2-pyrimidinamino)-3-methyl-phenylamino]-3-cyano-4-(4-tert-butylaminopiperidin-1-yl)-quinoline]	0.5 to 5 µM	5 to 10 µM	5 to 10 µM	0.5 to 5 µM	0.5 to 5 µM	0.5 to 5 µM												
COc1cc(C)nc(Nc2ccc(Nc3nc4ccccc4c(N4CCC(NC(C)(C)C)CC4)c3C#N)cc2C)n1 [Compound 510CN, 2-[4-(4-methyl-6-methoxypyrimidin-2-ylamino)-3-methylphenylamino]-3-cyano-4-(4-tert-butylaminopiperidin-1-yl)quinoline]							2.8%	0.1%	62.6%	0.3%	74.5%	0.2%	24.8%	0.1%	57.4%	0.1%	54.6%	0.1%
Cc1cc2c(C)nc(Nc3ccc(Nc4nc5ccccc5c(N5CCC(NC(C)(C)C)CC5)c4C#N)cc3C)nc2o1 [Compound 512CN, 2-[3-methyl-4-(4,6-dimethylfuro[2,3-d]pyrimidin-2-ylamino)phenylamino]-3-cyano-4-(4-tert-butylaminopiperidin-1-yl)quinoline]							0.2%	0.2%	0.2%	0.3%	0.2%	0.3%	0.2%	0.2%	0.3%	0.2%	0.2%	0.2%
Cc1cc(Nc2nc3ccccc3c(N3CCC(NC(C)(C)C)CC3)c2C#N)ccc1Nc1ccnc(-c2cccnc2)n1 [Compound 522CN, 2-{3-methyl-4-[2-(pyridin-3-yl)pyrimidin-4-ylamino]phenylamino}-3-cyano-4-(4-tert-butylaminopiperidin-1-yl)quinoline]							0.2%	0.2%	0.4%	0.4%	0.3%	0.3%	0.3%	0.2%	0.3%	0.3%	0.3%	0.2%
Cc1ccnc(Nc2ccc(Nc3nc4ccccc4c(N4CCC(NC(C)(C)C)CC4)c3C#N)cc2)n1 [Compound 532CN, 2-[4-(4-methylpyrimidin-2-ylamino)phenylamino]-3-cyano-4-(4-tert-butylaminopiperidin-1-yl)quinoline]	0.5 to 5 µM	5 to 10 µM	5 to 10 µM	0.5 to 5 µM	0.5 to 5 µM	5 to 10 µM												
Cc1ccnc(Nc2ccc(Nc3nc4ccccc4c(N4CCC(NC(C)(C)C)CC4)c3C)cc2)n1 [Compound 532Me, 2-[4-(4-methylpyrimidin-2-ylamino)phenylamino]-3-methyl-4-(4-tert-butylaminopiperidin-1-yl)quinoline]							0.3%	0.3%	55.9%	0.5%	65.5%	0.4%	16%	0.3%	23.3%	0.3%	12.3%	0.3%
Cc1cc(Nc2nc3ccccc3c(N3CCC(NC(C)(C)C)CC3)c2C#N)ccc1Nc1nccc(C(F)(F)F)n1 [Compound 534CN, 2-[3-methyl-4-(4-trifluoromethylpyrimidin-2-ylamino)phenylamino]-3-cyano-4-(4-tert-butylaminopiperidin-1-yl)quinoline]							2.1%	0.2%	49.1%	0.4%	0.4%	0.3%	0.4%	0.2%	0.4%	0.2%	13%	0.2%
Cc1ccc(Nc2nc3ccccc3c(N3CCC(NC(C)(C)C)CC3)c2C#N)cc1Nc1nccc(C(F)(F)F)n1 [Compound 538CN, 2-[3-(4-trifluoromethylpyrimidin-2-ylamino)-4-methyl-phenylamino]-3-cyano-4-(4-tert-butylaminopiperidin-1-yl)-quinoline]	5 to 10 µM	5 to 10 µM	5 to 10 µM	0.5 to 5 µM	0.5 to 5 µM	0.5 to 5 µM												
CC(C)(C)NC1CCN(c2c(C#N)c(Nc3cccc(Nc4nccc(C(F)(F)F)n4)c3)nc3ccccc23)CC1 [Compound 540CN, 2-[3-(4-trifluoromethylpyrimidin-2-ylamino)phenylamino]-3-cyano-4-(4-tert-butylaminopiperidin-1-yl)quinoline]	0.5 to 5 µM	0.5 to 5 µM	0.5 to 5 µM	0.5 to 5 µM	0.5 to 5 µM	5 to 10 µM												
CC(C)(C)NC1CCN(c2c(F)c(Nc3cccc(Nc4nccc(C(F)(F)F)n4)c3)nc3ccccc23)CC1 [Compound 540F, 2-[3-(4-trifluoromethylpyrimidin-2-ylamino)phenylamino]-3-fluoro-4-(4-tert-butylaminopiperidin-1-yl)quinoline]							0.8%	0.3%	43.3%	59.4%	8.8%	0.3%	0.4%	0.3%	0.4%	0.3%	0.3%	0.2%
Cc1c(Nc2cccc(Nc3nccc(C(F)(F)F)n3)c2)nc2ccccc2c1N1CCC(NC(C)(C)C)CC1 [Compound 540Me, 2-[3-(4-trifluoromethylpyrimidin-2-ylamino)phenylamino]-3-methyl-4-(4-tert-butylaminopiperidin-1-yl)quinoline]							2.6%	0.1%	63.9%	0.2%	63.1%	0.3%	0.4%	0.1%	1.6%	0.1%	38.3%	0.1%
Cc1ccc2c(N3CCC(NC(C)(C)C)CC3)cc(NCc3ccc(Cl)cc3)nc2c1F [Compound 564, 2-(4-chlorobenzylamino)-4-[4-(tert-butylamino)piperidin-1-yl]-7-methyl-8-fluoroquinoline]	0.5 to 5 µM	5 to 10 µM	0.5 to 5 µM	0.5 to 5 µM	0.5 to 5 µM	0.5 to 5 µM												
Cc1cc(F)c2nc(NCc3ccc(Cl)cc3)cc(N3CCC(NC(C)(C)C)CC3)c2c1 [Compound 568, 2-(4-chlorobenzylamino)-4-[4-(tert-butylamino)piperidin-1-yl]-6-methyl-8-fluoroquinoline]	0.5 to 5 µM	5 to 10 µM	0.5 to 5 µM	0.5 to 5 µM	0.5 to 5 µM	0.5 to 5 µM												
